IC50 and melting point data for 26 molecules are collected here from patent US7932271B2, “Heterocyclic methyl sulfone derivative” (Daiichi Pharmaceutical Co., Ltd., priority 2003, dated 2011).

As usually defined, the melting point is the temperature, or range, at which the solid turns liquid.

Molecules are shown by their SMILES.

In data set [1] the test system is β amyloid protein (Aβ) secreted by E35 cells (human glioma H4 cells transfected with APP751 gene). The experiment in a line: Inhibition of production or secretion of β-amyloid protein (Aβ) in E35 cells, sandwich ELISA of the supernatant. It is filed as cell-based. The following applies: 24 hours with test compound, compared to DMSO control cells, read-out: Activity (IC50, concentration at which 50% inhibition of Aβ production was observed). Here is the method:
The inhibitory activity against formation of β amyloid protein of the compounds obtained in Examples was tested in the method described bellow.
E35 cells were established by transfecting APP751 gene which is a wild type human β-amyloid protein precursor into human glioma cells (H4 cells).
E35 cells were seeded in 96-well plates and cultured in an incubator of 37° C. by using a Dulbecco's Modified Eagle's Medium containing 10% inactivated fetal bovine serum (10% FBS-DMEM). Twenty-four hours after seeding, a test compound dissolved in DMSO so as to give its concentration to be 2000 times as much as that of the final concentration was added to the medium in an amount of 1/2000 capacity of the culture medium. The cells were cultured for additional twenty-four hours, and then the supernatant was collected. The amount of β amyloid protein (Aβ) secreted in the supernatant was measured by the sandwich enzyme-linked immunosorbent assay (ELISA). Described specifically, a monoclonal antibody 25-1, which recognized Aβ25-35, was immobilized onto a 96-well ELISA plate, followed by the incubation at 4° C. for 16 to 20 hours. After washing with a phosphate buffer (pH 7.4) (PBS), a biotinylated monoclonal antibody MA32-40, which recognized Aβ1-8, was added, and the plate was kept at 4° C. for 2 hours. After the supernatant was removed and the well was washed sufficiently with PBS, alkaline phosphatase-conjugated streptavidin was added to the plate. Absorbance was measured while adding BlouPhos (manufactured by KPL) as a substrate. An amount of Aβ contained in the supernatant was calculated using a calibration curve separately created using Aβ of a known concentration. IC50 of the test compound was presented as the concentration at which 50% inhibition of Aβ production was observed compared to the amount of Aβ of the control cells to which only DMSO was added.
When there is at least 10-times difference between the IC50 and the concentration at which cytotoxicity appears, then the compound is judged as a compound having an inhibitory activity against production or secretion of β amyloid protein.

With `O=S(=O)(Cc1ccncc1)Nc1cc(C(c2cc(F)ccc2F)S(=O)(=O)c2ccc(Cl)cc2)c(Cl)cn1` (stereo not shown) [Example 269, N-[5-Chloro-4-[(4-chlorophenylsulfonyl)(2,5-difluorophenyl)methyl]pyridin-2-yl]-1-pyridin-4-ylmethanesulfonamide], the melting point was 257 °C (dec.). Further, the IC50 in data set [1] was below 5 nM.

Take `CS(=O)(=O)Nc1cc(C(c2cc(F)ccc2F)S(=O)(=O)c2ccc(F)cc2)c(Cl)cn1` (stereo not shown) [Example 216, N-[5-Chloro-4-[(2,5-difluorophenyl)-(4-fluorophenylsulfonyl)methyl]pyridin-2-yl]methanesulfonamide]: the melting point is 178 to 179 °C. In addition, the IC50 in data set [1] was below 5 nM.

As for `O=S(=O)(c1ccc(Cl)cc1)C(c1cc(F)ccc1F)c1cc(N2CCCS2(=O)=O)ncc1Cl` (stereo not shown) [Example 274, 5-Chloro-4-[(4-chlorophenylsulfonyl)(2,5-difluorophenyl)methyl]-2-(1,1-dioxo-1λ^6-isothiazolidin-2-yl)pyridine], the melting point was in the range of 219 to 221 °C. Also, in data set [1], the IC50 was 5 to 50 nM.

With `CN1CCN(S(=O)(=O)Nc2cc(C(c3cc(F)ccc3F)S(=O)(=O)c3ccc(Cl)cc3)c(Cl)cn2)CC1` (stereo not shown) [Example 271], the melting point fell in the range of 215 to 218 °C. In addition, in data set [1], the IC50 is below 5 nM.

`Nc1cc(C(c2cc(F)ccc2F)S(=O)(=O)c2ccc(Cl)cc2)c(Cl)cn1` (stereo not shown) [Example 196, [5-Chloro-4-[(4-chlorophenylsulfonyl)(2,5-difluorophenyl)methyl]pyridin-2-yl]amine] returned a melting point of 147 to 150 °C. In data set [1], the IC50 was below 5 nM.

Regarding `O=S(=O)(c1ccc(Cl)cc1)C(c1cc(F)ccc1F)c1ccncc1Cl` (stereo not shown) [Example 55, 3-Chloro-4-[(4-chlorophenylsulfonyl)-(2,5-difluorophenyl)methyl]pyridine], the melting point fell in the range of 160 to 161 °C. For the same molecule, the IC50 in data set [1] lay in the range of 5 to 50 nM.

The molecule `Nc1cc(C(c2cc(F)ccc2F)S(=O)(=O)c2ccc(Cl)cc2)c(F)cn1` (stereo not shown) [Example 203, [4-[(4-Chlorophenylsulfonyl)(2,5-difluorophenyl)methyl]-5-fluoropyridin-2-yl]amine] registered a melting point of 181 to 183 °C. In data set [1], the IC50 lay in the range of 5 to 50 nM.

`Cc1cnc(N)cc1C(c1cc(F)ccc1F)S(=O)(=O)c1ccc(Cl)cc1` (stereo not shown) [Example 211, [4-[(4-Chlorophenylsulfonyl)(2,5-difluorophenyl)methyl]-5-methylpyridin-2-yl]amine] displayed a melting point of 188 to 189 °C. Moreover, in data set [1], the IC50 was below 5 nM.

With `CS(=O)(=O)Nc1cc(C(c2cc(C#N)ccc2F)S(=O)(=O)c2ccc(Cl)cc2)c(Cl)cn1` (stereo not shown) [Example 236, N-[5-Chloro-4-[(4-chlorophenylsulfonyl)(5-cyano-2-fluorophenyl)methyl]pyridin-2-yl]methanesulfonamide], the melting point fell in the range of 118 to 120 °C. Moreover, the IC50 in data set [1] was below 5 nM.

Molecule `CN(CCO)c1cc(C(c2cc(F)ccc2F)S(=O)(=O)c2ccc(Cl)cc2)c(Cl)cn1` (stereo not shown) [Example 164, 2-[[5-Chloro-4-[(4-chlorophenylsulfonyl)-(2,5-difluorophenyl)methyl]pyridin-2-yl](methyl)amino]ethanol] yielded a melting point of 88 to 89 °C. The IC50 in data set [1] was below 5 nM.

`Cn1cnc(S(=O)(=O)Nc2cc(C(c3cc(F)ccc3F)S(=O)(=O)c3ccc(Cl)cc3)c(Cl)cn2)c1` (stereo not shown) [Example 268, N-[5-Chloro-4-[(4-chlorophenylsulfonyl)(2,5-difluorophenyl)methyl]pyridin-2-yl]-1-methyl-1H-imidazole-4-sulfonamide] displayed a melting point of 294 to 296 °C. Further, the IC50 in data set [1] was below 5 nM.

Consider `O=S(=O)(CCN1CCOCC1)Nc1cc(C(c2cc(F)ccc2F)S(=O)(=O)c2ccc(Cl)cc2)c(Cl)cn1` (stereo not shown) [Example 280, N-[5-Chloro-4-[(4-chlorophenylsulfonyl)(2,5-difluorophenyl)methyl]pyridin-2-yl]-2-morpholin-4-ylethanesulfonamide], for which the melting point was 219 to 221 °C. Also, in data set [1], the IC50 was below 5 nM.

In turn, `O=S(=O)(c1ccc(Cl)cc1)C(c1cccnc1)c1cc(F)ccc1F` (stereo not shown) [Example 19, 3-[[(4-Chlorophenyl)sulfonyl]-(2,5-difluorophenyl)methyl]pyridine] registered a melting point of 130 to 131 °C. Besides, in data set [1], the IC50 lay in the range of 50 to 500 nM.

As for `O=S(=O)(c1ccc(Cl)cc1)C(c1ccncc1)c1cc(F)ccc1F` (stereo not shown) [Example 20, 4-[[(4-Chlorophenyl)sulfonyl]-(2,5-difluorophenyl)methyl]pyridine], the melting point was in the range of 126 to 127 °C. For the same molecule, the IC50 in data set [1] was 50 to 500 nM.

For the molecule `Nc1cc(C(c2cc(F)ccc2F)S(=O)(=O)c2ccc(Cl)nc2)c(Cl)cn1` (stereo not shown) [Example 245, [5-Chloro-4-[(6-chloropyridin-3-ylsulfonyl)(2,5-difluorophenyl)methyl]pyridin-2-yl]amine], the melting point was in the range of 157 to 158 °C. The IC50 in data set [1] was in the range of 5 to 50 nM.

The molecule `N#Cc1ccc(S(=O)(=O)C(c2cc(F)ccc2F)c2cc(N)ncc2Cl)cc1` (stereo not shown) [Example 246, 4-[(2-Amino-5-chloropyridin-4-yl)(2,5-difluorophenyl)methylsulfonyl]benzonitrile] yielded a melting point of 233 to 235 °C. Also, the IC50 in data set [1] fell in the range of 5 to 50 nM.

Take `O=S(=O)(CCN1CCCCC1)Nc1cc(C(c2cc(F)ccc2F)S(=O)(=O)c2ccc(Cl)cc2)c(Cl)cn1` (stereo not shown) [Example 278, N-[5-Chloro-4-[(4-chlorophenylsulfonyl)(2,5-difluorophenyl)methyl]pyridin-2-yl]-2-piperidin-1-ylethanesulfonamide]: the melting point was in the range of 200 to 203 °C. In addition, the IC50 in data set [1] was below 5 nM.

Molecule `O=S(=O)(c1ccc(Cl)cc1)C(c1cc(F)ccc1F)c1cc(N2CCC(O)CC2)ncc1Cl` (stereo not shown) [Example 116, 5-Chloro-4-[(4-chlorophenylsulfonyl)-(2,5-difluorophenyl)methyl]-2-(4′-hydroxypiperidin-1′-yl)pyridine] yielded a melting point of 146 to 148 °C. In data set [1], the IC50 lay in the range of 5 to 50 nM.

In the case of `O=C(O)CCc1cc(C(c2cc(F)ccc2F)S(=O)(=O)c2ccc(Cl)cc2)c(F)cn1` (stereo not shown) [Example 254, 3-[4-[(4-Chlorophenylsulfonyl)(2,5-difluorophenyl)methyl]-5-fluoropyridin-2-yl]propionic acid], the melting point lay within 89 to 91 °C. Also, the IC50 in data set [1] is 50 to 500 nM.

`Nc1cc(C(c2cc(F)ccc2F)S(=O)(=O)c2ccc(Cl)cn2)c(Cl)cn1` (stereo not shown) [Example 241, [5-Chloro-4-[(5-chloropyridin-2-ylsulfonyl)(2,5-difluorophenyl)methyl]pyridin-2-yl]amine] gave a melting point of 187 to 189 °C. The IC50 in data set [1] is 5 to 50 nM.

Molecule `O=C(O)CCc1cc(C(c2cc(F)ccc2F)S(=O)(=O)c2ccc(C(F)(F)F)cc2)c(Cl)cn1` (stereo not shown) [Example 267, 3-[5-Chloro-4-[(2,5-difluorophenyl)(4-trifluoromethylphenylsulfonyl)methyl]pyridin-2-yl]propionic acid] registered a melting point of 166 to 167 °C. Moreover, the IC50 in data set [1] is 5 to 50 nM.

`O=S(=O)(c1ccc(Cl)cc1)C(c1cc(F)ccc1F)c1cc(NS(=O)(=O)N2CCCCC2)ncc1Cl` (stereo not shown) [Example 270, N-[5-Chloro-4-[(4-chlorophenylsulfonyl)(2,5-difluorophenyl)methyl]pyridin-2-yl]piperidine-1-sulfonamide]: the melting point was 192 to 194 °C. For the same molecule, the IC50 in data set [1] lay in the range of 5 to 50 nM.

Regarding `N#Cc1ccc(F)c(C(c2cc(N)ncc2Cl)S(=O)(=O)c2ccc(Cl)cc2)c1` (stereo not shown) [Example 234, 3-[(2-Amino-5-chloropyridin-4-yl)(4-chlorophenylsulfonyl)methyl]-4-fluorobenzonitrile], the melting point was above 220 °C. Also, in data set [1], the IC50 is below 5 nM.

In turn, `COc1ccc(S(=O)(=O)C(c2cc(F)ccc2F)c2cc(N)ncc2Cl)cc1` (stereo not shown) [Example 240, [5-Chloro-4-[(2,5-difluorophenyl)(4-methoxyphenylsulfonyl)methyl]pyridin-2-yl]amine] yielded a melting point of 153 to 155 °C. The IC50 in data set [1] is 5 to 50 nM.

`Nc1cc(C(c2cc(F)ccc2F)S(=O)(=O)c2ccc(F)cc2)c(Cl)cn1` (stereo not shown) [Example 215, [5-Chloro-4-[(2,5-difluorophenyl)-(4-fluorophenylsulfonyl)methyl]pyridin-2-yl]amine] yielded a melting point of 157 to 159 °C. The IC50 in data set [1] was below 5 nM.

Consider `O=S(=O)(c1ccc(Cl)cc1)C(c1cc(F)ccc1F)c1cc(NS(=O)(=O)C(F)(F)F)ncc1Cl` (stereo not shown) [Example 276, N-[5-Chloro-4-[(4-chlorophenylsulfonyl)(2,5-difluorophenyl)methyl]pyridin-2-yl]trifluoromethanesulfonamide], for which the melting point fell in the range of 221 to 223 °C. In addition, the IC50 in data set [1] fell in the range of 5 to 50 nM.
